Results as given in patent US20230085362A1, “PYRIMIDINE COMPOUNDS AND USE THEREOF” (National Health Research Institutes, priority 2021, published 2023).
Read-outs that look alike come from different tables or passages of the source.

Columns and labels:
Primary DRG cells [1] = experiment: Neurite outgrowth assay (group B), oxaliplatin-induced neurotoxicity; type: cell-based, C57BL/6 J mice; details: for Neurite outgrowth (%): % of untreated control; for Neurite outgrowth (%) A-B: difference between compound 1 µM + oxaliplatin 100 µM and oxaliplatin 100 µM alone; for neuroprotection against oxaliplatin-induced neurotoxicity: 1 µM compound
Procedure: (§1) Cell culture. For primary culture, dorsal root ganglia (“DRG”) were removed from 7-weeks-old C57BL/6 J mice and digested with 0.1% collagenase (Sigma-Aldrich, St. Louis, MO) for 1 hour, followed by 0.25% trypsin treatment for 25 minutes. The dissociated neuron cultures were plated at a density of 2.5×10^4 cells per well in a 96 well optics plates (CLS3614; Sigma-Aldrich) precoated with 1 mg/mL poly-D-lysine (A-003-M; Sigma-Aldrich) for 3 hours. Primary DRG cells were grown in DMEM-F12 (11320033; Gibco®, ThermoFisher Scientific, Waltham, MA) supplemented with 10% fetal bovine serum (FBS, 26140079; Gibco®, ThermoFisher). These cells were maintained at 37° C. in an environment containing 5% CO2.
(§2) Neurite outgrowth assay (group A). Primary DRG cells were incubated with one of the Example 2 compounds at 1 µM for 24 hours, and then treated with 0.05 µM paclitaxel for another 24 hours. After the paclitaxel treatment, the primary DRG cells were washed by PBS and then fixed with 4% paraformaldehyde (PFA, P6148; Sigma-Aldrich) for 15 minutes. The DRG cells thus fixed were permeabilized by 0.05% Triton X-100 in PBS for 20 minutes and blocked with 3% bovine serum albumin (BSA; Sigma-Aldrich, USA) at room temperature for 1 hour. Subsequently, DRG cells were stained with rabbit anti-β III tubulin (1:600; Cell Signaling, USA) and mouse anti-NeuN monoclonal antibody (1:400; Millipore, USA) overnight at 4° C. The samples were then washed by PBS and reacted with secondary antibodies (Alexa-488 and Alexa-594 1:600; Invitrogen, CA) at room temperature for 1 hour. For image acquisition and analysis of DRG neurite outgrowth, images of stained cells were automatically acquired using 10X objective by Image Xpress Micro wide field fluorescent microscope (Molecular Devices, USA). A control was obtained following the same procedure except that the DRG cells were not treated with a compound or paclitaxel. Neurite outgrowth was measured as a percentage of outgrowth as compared to the control.
Neurite outgrowth assay (group B). Primary DRG cells were incubated with compounds 17, 47, 97, 98, 101, 104 at 1 µM for 24 hours, and then treated with 100 µM oxaliplatin for another 48 hours. The treatment was obtained following the same procedure as group A except that the DRG cells were treated with a oxaliplatin. Neurite outgrowth was measured as a percentage of outgrowth as compared to the control.

Primary DRG cells [2] = experiment: Neurite outgrowth assay (group A), paclitaxel-induced neurotoxicity; type: cell-based, C57BL/6 J mice; details: for neuroprotection against paclitaxel-induced neurotoxicity: 1 µM compound; for activity at 1 µM: Mus musculus, read-out: Neurite outgrowth (%); for Neurite outgrowth (%) A-B (extent of protection): difference between compound 1 µM + paclitaxel 0.05 µM and paclitaxel 0.05 µM alone
Procedure: Compounds of this invention were evaluated using the neurite outgrowth assay as described in Chen et al., Scientific Reports, 7, 45366, DOI: 10.1038/srep45366 (2017).
as §1, §2
The difference between A and B indicates an extent of protection provided by the compound.

[3] = tested on: paclitaxel-induced neuropathy; details: 5 mg/kg i.p. one hour before paclitaxel 4.5 mg/kg i.p., days 0, 2, 4, 6
Procedure: Compound 47 was used in an in vivo mouse behavioral study for treating paclitaxel-induced neuropathy following a procedure described in Chen et al., Scientific Reports, 7, 45366, DOI: 10.1038/srep45366 (2017).
After housing adaptions, 7-weeks-old C57BL/6J female mice (weight range: 18-20 g) were treated as follows. Paclitaxel (4.5 mg/kg, Bristol-Myers Squibb, New York, New York), vehicle (saline), or Compound 47 (5, 10 or 20 mg/kg) was injected intraperitoneally on four alternative days (days 0, 2, 4, and 6). Two behavior tests were performed: (1) mechanical hyperalgesia was evaluated using a von Frey filament (Part #2390, IITC Inc., CA) and (2) thermal sensitivity was studied using a tail immersion assay (water temperature: 48-49° C.). See Chen et al., Mol. Cancer. Ther. 14, 2206-14 (2015). The baseline measurement of each behavior test was established prior to treatments. Five sessions were measured weekly.
The neuroprotective effects of Compound 47 in a mouse model was measured following a protocol with predetermined drug administration and behavioral tests. The basal levels of each behavioral assay were obtained prior to the treatment. […]
A von Frey filament test was performed to detect allodynia. […] Thermal sensation was assessed using a tail immersion test by checking tail withdrawal latency. […]

[4] = DRG cells, 1 µM compound 24 h then 100 µM oxaliplatin 48 h
[5] = DRG cells, 1 µM compound 24 h then 0.05 µM paclitaxel 24 h, % of untreated control

Row | SMILES | Neurite outgrowth (%) (Primary DRG cells [1]; [4]) | Neurite outgrowth (%) A-B (Primary DRG cells [1]) | neuroprotection against paclitaxel-induced neurotoxicity (Primary DRG cells [2]; 0.05 µM paclitaxel) | activity at 1 µM (Primary DRG cells [2]; [5]) | Neurite outgrowth (%) A-B (extent of protection) (Primary DRG cells [2]) | further results
1 | CC(C)NCCCn1cc(CNc2nc(NC3CCN(Cc4ccccc4)CC3)cc(N3CCOCC3)n2)nn1 [Compound 17] | 26% | -3% | neuroprotection was provided | 50% | 3% | 
2 | O=P(O)(O)CCN1CCC(Nc2cc(N3CCOCC3)nc(NCc3cn(CCCO)nn3)n2)CC1 [Compound 47] | 47% | 7% | neuroprotection was provided | 65% | 18% | improvement of neurite outgrowth (Primary DRG cells [1]; 1 µM compound vs 100 µM oxaliplatin treated cells): more than 7%; neuroprotection against oxaliplatin-induced neurotoxicity (Primary DRG cells [1]; 100 µM oxaliplatin): neuroprotection was provided; improvement of neurite outgrowth (Primary DRG cells [2]; 1 µM compound vs 0.05 µM paclitaxel treated cells): more than 18%; pain threshold (von Frey) [3]: provided protection
3 | COC(=O)CCOCCCn1cc(CNc2nc(NC3CCN(Cc4ccc(C#N)cc4)CC3)cc(N3CCOCC3)n2)nn1 [Compound 72] |  |  | neuroprotection was provided | 45% | 3% | 
4 | COC(=O)CCCCC(=O)N1CCC(Nc2cc(N3CCOCC3)nc(NCc3cn(CCCOCCC(=O)OC)nn3)n2)CC1 [Compound 73] |  |  | neuroprotection was provided | 45% | 3% | 
5 | CCOC(=O)CNCCC(=O)N1CCC(Nc2cc(N3CCOCC3)nc(NCc3cn(CCCOCCC(=O)OC)nn3)n2)CC1 [Compound 74] |  |  | neuroprotection was provided | 45% | 3% | 
6 | COC(=O)CCOCCCn1cc(CNc2nc(NC3CCN(Cc4ccc5ccccc5c4)CC3)cc(N3CCOCC3)n2)nn1 [Compound 75] |  |  | neuroprotection was provided |  |  | 
7 | OCC(CO)Cn1cc(CNc2nc(NC3CCN(Cc4ccccc4)CC3)cc(N3CCOCC3)n2)nn1 [Compound 81] |  |  | neuroprotection was provided | 52% | 2% | 
8 | CCn1nnnc1CNc1nc(N2CCOCC2)cc(N2CCOCC2)n1 [Compound 97] | 31% | 2% | neuroprotection was provided | 45% | 5% | neuroprotection against oxaliplatin-induced neurotoxicity (Primary DRG cells [1]; 100 µM oxaliplatin): neuroprotection was provided
9 | CCn1nnc(CNc2nc(N3CCOCC3)cc(N3CCOCC3)n2)n1 [Compound 98] | 26% | -3% | neuroprotection was provided | 45% | 5% | 
10 | CCn1nnc(CNc2nc(NC3CCN(CCC(=O)OC)CC3)cc(N3CCOCC3)n2)n1 [Compound 100] |  |  | neuroprotection was provided | 52% | 3% | 
11 | CCn1nnc(CNc2nc(NC3CCN(CCC(=O)O)CC3)cc(N3CCOCC3)n2)n1 [Compound 101] | 31% | 2% | neuroprotection was provided | 53% | 6% | neuroprotection against oxaliplatin-induced neurotoxicity (Primary DRG cells [1]; 100 µM oxaliplatin): neuroprotection was provided
12 | OCCCc1cc(CNc2nc(NC3CCNCC3)cc(N3CCOCC3)n2)no1 [Compound 104] | 34% | 5% | neuroprotection was provided | 45% | 5% | neuroprotection against oxaliplatin-induced neurotoxicity (Primary DRG cells [1]; 100 µM oxaliplatin): neuroprotection was provided
13 | OCCCn1cc(CNc2cc(NC3CCNCC3)nc(NCc3cn(CCCO)nn3)n2)nn1 [Compound 108] |  |  | neuroprotection was provided |  | 9% | activity at 1 µM (Primary DRG cells [2]; 24 h): 41%
14 | O=P(O)(O)CCN1CCC(Nc2cc(N3CCOCC3)nc(NCc3cn(CCO)nn3)n2)CC1 [Compound 114] |  |  | neuroprotection was provided | 55% | 8% | 
15 | O=P(O)(O)CCN1CCC(Nc2cc(N3CCOCC3)nc(NCc3cn(CCCCO)nn3)n2)CC1 [Compound 117] |  |  | neuroprotection was provided | 58% | 11% | 
16 | O=P(O)(O)CCN1CCC(Nc2cc(N3CCCCC3)nc(NCc3cn(CCCO)nn3)n2)CC1 [Compound 135] |  |  | neuroprotection was provided | 56% | 6% | 
17 | O=P(O)(O)CCN1CCC(Nc2cc(N3CCSCC3)nc(NCc3cn(CCCO)nn3)n2)CC1 [Compound 140] |  |  | neuroprotection was provided | 54% | 4% | 
18 | O=P(O)(O)CCN1CCC(Nc2cc(N3CCS(=O)(=O)CC3)nc(NCc3cn(CCCO)nn3)n2)CC1 [Compound 143] |  |  | neuroprotection was provided | 57% | 7% | 
19 | O=C1[O][Pt]2([NH][C@@H]3CCCC[C@H]3[NH]2)[O]C1=O [oxaliplatin, reference compound] |  |  |  |  |  | neurotoxicity to DRG neurite outgrowth (Primary DRG cells [1]; 100 µM oxaliplatin 48 h): inhibiting neurite outgrowth; inhibition of DRG neurite outgrowth (Primary DRG cells [1]; 100 µM oxaliplatin, across experiments of Table 2): 60%-71; Neurite outgrowth (%) (Primary DRG cells [1]; DRG cells treated with 100 µM oxaliplatin only, comparator of the compound in the same table row): 29%
20 | CC(=O)O[C@H]1C(=O)[C@@]2(C)[C@H]([C@H](OC(=O)c3ccccc3)[C@]3(O)C[C@H](OC(=O)[C@H](O)[C@@H](NC(=O)c4ccccc4)c4ccccc4)C(C)=C1C3(C)C)[C@]1(OC(C)=O)CO[C@@H]1C[C@@H]2O [paclitaxel, reference compound] |  |  |  |  |  | neurotoxicity to DRG neurite outgrowth (Primary DRG cells [2]; 0.05 µM paclitaxel 24 h): inhibiting neurite outgrowth; inhibition of DRG neurite outgrowth (Primary DRG cells [2]; 0.05 µM paclitaxel, across experiments of Table 1): 50%-69
